Columns and labels:
HDAC1 = HDAC1 (Homo sapiens, UniProt Q13547); assay: enzyme inhibition assay with fluorescent assay kit; type: biochemical
[1] = target: ALK^wt (anaplastic lymphoma kinase) (Homo sapiens, UniProt Q9UM73); assay: enzyme inhibition assay with fluorescent assay kit; type: biochemical
Chain of ALK^wt (anaplastic lymphoma kinase) (Q9UM73 19-1620): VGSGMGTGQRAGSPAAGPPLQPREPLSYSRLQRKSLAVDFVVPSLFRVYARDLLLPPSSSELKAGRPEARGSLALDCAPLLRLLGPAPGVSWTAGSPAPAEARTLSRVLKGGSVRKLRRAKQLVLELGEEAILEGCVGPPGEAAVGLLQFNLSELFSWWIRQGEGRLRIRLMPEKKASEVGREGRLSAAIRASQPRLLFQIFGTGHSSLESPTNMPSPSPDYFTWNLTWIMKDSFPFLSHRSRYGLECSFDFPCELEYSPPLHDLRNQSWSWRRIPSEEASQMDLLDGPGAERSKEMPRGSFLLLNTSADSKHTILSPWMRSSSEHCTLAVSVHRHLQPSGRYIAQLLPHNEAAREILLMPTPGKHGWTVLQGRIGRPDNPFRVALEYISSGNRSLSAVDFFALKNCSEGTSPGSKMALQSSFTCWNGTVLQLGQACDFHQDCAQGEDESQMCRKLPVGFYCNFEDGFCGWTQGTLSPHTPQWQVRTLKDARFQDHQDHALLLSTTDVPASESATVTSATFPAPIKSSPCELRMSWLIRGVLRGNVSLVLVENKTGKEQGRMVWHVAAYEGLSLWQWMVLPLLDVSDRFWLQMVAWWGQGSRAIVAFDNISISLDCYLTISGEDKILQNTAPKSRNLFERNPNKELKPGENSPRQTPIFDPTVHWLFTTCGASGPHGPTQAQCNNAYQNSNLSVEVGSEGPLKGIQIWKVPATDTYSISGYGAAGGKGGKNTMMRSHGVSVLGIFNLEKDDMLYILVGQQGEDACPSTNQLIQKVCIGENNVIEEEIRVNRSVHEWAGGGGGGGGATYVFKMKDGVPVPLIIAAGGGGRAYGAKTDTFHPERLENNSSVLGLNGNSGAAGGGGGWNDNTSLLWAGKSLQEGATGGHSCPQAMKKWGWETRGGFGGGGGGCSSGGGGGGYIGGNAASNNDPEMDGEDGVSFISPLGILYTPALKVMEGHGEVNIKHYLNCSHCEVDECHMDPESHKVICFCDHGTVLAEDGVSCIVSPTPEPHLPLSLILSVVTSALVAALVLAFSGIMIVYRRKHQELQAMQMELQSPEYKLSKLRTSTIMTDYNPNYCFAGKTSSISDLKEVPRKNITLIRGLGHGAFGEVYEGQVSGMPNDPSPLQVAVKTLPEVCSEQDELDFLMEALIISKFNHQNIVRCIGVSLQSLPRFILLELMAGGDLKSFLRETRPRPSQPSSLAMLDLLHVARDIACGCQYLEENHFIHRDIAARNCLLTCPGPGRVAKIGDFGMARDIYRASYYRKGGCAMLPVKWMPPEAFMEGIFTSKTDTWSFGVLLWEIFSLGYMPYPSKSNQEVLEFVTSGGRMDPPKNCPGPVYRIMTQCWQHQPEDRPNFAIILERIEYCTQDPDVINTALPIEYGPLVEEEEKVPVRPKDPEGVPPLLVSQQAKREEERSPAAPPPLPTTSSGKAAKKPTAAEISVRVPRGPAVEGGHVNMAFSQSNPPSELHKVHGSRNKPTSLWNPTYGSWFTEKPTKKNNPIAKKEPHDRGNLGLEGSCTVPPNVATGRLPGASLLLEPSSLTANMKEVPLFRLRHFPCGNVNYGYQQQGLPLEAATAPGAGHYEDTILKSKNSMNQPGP

Chain of HDAC1 (Q13547 whole entry): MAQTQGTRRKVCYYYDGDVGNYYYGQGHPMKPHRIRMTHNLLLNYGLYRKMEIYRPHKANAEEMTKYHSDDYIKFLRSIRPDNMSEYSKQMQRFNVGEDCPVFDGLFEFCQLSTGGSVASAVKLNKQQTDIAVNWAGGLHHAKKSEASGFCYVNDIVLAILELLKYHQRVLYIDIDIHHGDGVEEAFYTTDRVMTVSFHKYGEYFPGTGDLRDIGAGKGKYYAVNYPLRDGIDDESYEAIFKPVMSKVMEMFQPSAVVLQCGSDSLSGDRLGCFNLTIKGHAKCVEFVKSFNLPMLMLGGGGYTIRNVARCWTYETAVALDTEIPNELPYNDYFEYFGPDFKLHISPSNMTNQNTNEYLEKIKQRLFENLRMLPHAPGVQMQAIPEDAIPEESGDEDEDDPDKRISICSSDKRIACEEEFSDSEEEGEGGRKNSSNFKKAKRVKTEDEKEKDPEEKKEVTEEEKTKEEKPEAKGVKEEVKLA

- IC50 (HDAC1): 1450 nM
- IC50 [1]: 9.5 nM
SMILES: CC(C)S(=O)(=O)c1ccccc1Nc1nc(Nc2ccc(C(=O)Nc3ccccc3N)cc2)ncc1Cl [12a, N-(2-aminophenyl)-4-((5-chloro-4-((2-(isopropylsulfonyl)phenyl)amino)pyrimidin-2-yl)amino)benzamide]
